The results in this text go back to US8771665B2 (Cocrystal Discovery, Inc., priority 2010, dated 2014).

For the assay, the target named is T1, HCV1b NS5B polymerase delta 21 (Hepatitis C virus genotype 1b, UniProt P26663).
T1 construct: purified HCV1b NS5B polymerase delta 21
The experiment in a line: RNA-Dependent RNA HCV NS5B (Polymerase) Assay and IC50 Determination. The class given is biochemical. As to the method:
RNA-Dependent RNA HCV NS5B (Polymerase) Assay and IC50 Determination
In vitro RNA-dependent RNA polymerase activity was determined in a reaction mixture (50 μL) containing 50 mM Tris-HCl, pH 7.5, 5 mM MgCl2, 1 mM dithiothreitol, 0.5% Triton® X-100, 10 μM of UTP, 0.1-0.5 μCi of α-^32P UTP (Perkin Elmer Life Sciences), 1 μg of polyA:U16 (Midland Oligo), and 0.6 μg of purified HCV1b NS5B polymerase delta 21. Different concentrations of compounds were added to the reaction mixtures. The reaction was carried out at RT (23° C.) for 60 min and then stopped by the addition of 100 μL of 50 mM EDTA. The reaction mixtures were filtered through either a DE81 membrane or a positively charged nylon membrane, and the membranes were then extensively washed with 30 mM sodium citrate, pH 7.0 and 300 mM NaCl. The radiolabeled RNA products were quantitated using a Storm™ Phosphorlmager™ (GE Life Sciences). IC50 values were calculated using GraFit 6 and GraphPad Prism 5 from triplicate assays.

The structures appear in SMILES notation. Where only a bound is given, the exact number is not on record here.

T1 sequence (P26663 2420-2989): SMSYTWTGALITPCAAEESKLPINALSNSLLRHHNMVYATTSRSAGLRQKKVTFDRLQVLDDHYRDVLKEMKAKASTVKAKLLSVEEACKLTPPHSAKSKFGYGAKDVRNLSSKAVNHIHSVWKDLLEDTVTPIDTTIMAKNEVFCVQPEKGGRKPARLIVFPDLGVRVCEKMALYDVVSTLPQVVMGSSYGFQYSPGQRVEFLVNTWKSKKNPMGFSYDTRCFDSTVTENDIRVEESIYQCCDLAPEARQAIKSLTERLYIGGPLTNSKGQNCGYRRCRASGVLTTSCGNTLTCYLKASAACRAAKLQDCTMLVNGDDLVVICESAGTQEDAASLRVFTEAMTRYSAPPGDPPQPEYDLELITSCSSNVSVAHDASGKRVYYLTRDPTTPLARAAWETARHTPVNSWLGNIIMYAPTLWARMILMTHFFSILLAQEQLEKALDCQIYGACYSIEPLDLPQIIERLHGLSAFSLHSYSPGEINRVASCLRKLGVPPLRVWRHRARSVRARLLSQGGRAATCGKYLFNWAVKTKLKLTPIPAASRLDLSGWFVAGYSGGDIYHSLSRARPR

For `CC1CC=C(C2=C(c3cc(C#CC(C)(C)C)sc3C(=O)O)CCN(C)C2)CC1` (stereo not drawn) [Example 068, 5-(3,3-Dimethyl-but-1-ynyl)-3-[1-methyl-5-(4-methyl-cyclohex-1-enyl)-1,2,3,6-tetrahydro-pyridin-4-yl]-thiophene-2-carboxylic acid], the IC50 was less than 3 µM.
The value for `CCN1CCC(c2cc(-c3ccc(NCc4cscn4)cc3)sc2C(=O)O)=C(C2CCC(C)CC2)C1` (stereo not drawn) [Example 061, 3-[1-Ethyl-5-(4-methyl-cyclohexyl)-1,2,3,6-tetrahydro-pyridin-4-yl]-5-{4-[(thiazol-4-ylmethyl)-amino]-phenyl}-thiophene-2-carboxylic acid] was more than 10 µM; that for `CC1CCC(C2=C(c3cc(C#CC(C)(C)C)sc3C(=O)O)CN(CCCO)CC2)CC1` (stereo not drawn) [Example 114, 5-(3,3-Dimethyl-but-1-ynyl)-3-[1-(3-hydroxy-propyl)-4-(4-methyl-cyclohexyl)-1,2,5,6-tetrahydro-pyridin-3-yl]-thiophene-2-carboxylic acid] was less than 3 µM; that for `CCN1CCC(c2cc(C#CC3CCCC3)sc2C(=O)O)=C(C2CCC(C)CC2)C1` (stereo not drawn) [Example 031, 5-Cyclopentylethynyl-3-[1-ethyl-5-(4-methyl-cyclohexyl)-1,2,3,6-tetrahydro-pyridin-4-yl]-thiophene-2-carboxylic acid] was 3 to 10 µM.
The value for `CC1CCC(C2=C(c3cc(-c4ccccc4)sc3C(=O)O)CCN(CCCCc3ccccc3)C2)CC1` (stereo not drawn) [Example 080, 3-[5-(4-Methyl-cyclohexyl)-1-(4-phenyl-butyl)-1,2,3,6-tetrahydro-pyridin-4-yl]-5-phenyl-thiophene-2-carboxylic acid] was more than 10 µM.
In turn, `CC1CCC(C2=C(c3cc(-c4ccccc4)sc3C(=O)O)CCN(CC3CC3)C2)CC1` (stereo not drawn) [Example 006, 3-[1-Cyclopropylmethyl-5-(4-methyl-cyclohexyl)-1,2,3,6-tetrahydro-pyridin-4-yl]-5-phenyl-thiophene-2-carboxylic acid] displayed an IC50 of less than 3 µM.
`CC1CCC(C2=C(c3cc(-c4ccccc4)sc3C(=O)O)CCN(C(=O)Cc3ccc4ccccc4c3)C2)CC1` (stereo not drawn) [Example 096, 3-[5-(4-Methyl-cyclohexyl)-1-(2-naphthalen-2-yl-acetyl)-1,2,3,6-tetrahydro-pyridin-4-yl]-5-phenyl-thiophene-2-carboxylic acid] displayed an IC50 of more than 10 µM.
The value for `CCN1CCC(c2cc(-c3ccc(NC(=O)c4ccsc4)cc3)sc2C(=O)O)=C(C2CCC(C)CC2)C1` (stereo not drawn) [Example 049, 3-[1-Ethyl-5-(4-methyl-cyclohexyl)-1,2,3,6-tetrahydro-pyridin-4-yl]-5-{4-[(thiophene-3-carbonyl)-amino]-phenyl}-thiophene-2-carboxylic acid] was less than 3 µM; that for `CC1CCC(C2=C(c3cc(C#CC4(Cc5ccccc5)CC4)sc3C(=O)O)CCN(C)C2)CC1` (stereo not drawn) [Example 174, 5-(1-Benzyl-cyclopropylethynyl)-3-[1-methyl-5-(4-methyl-cyclohexyl)-1,2,3,6-tetrahydro-pyridin-4-yl]-thiophene-2-carboxylic acid] was more than 10 µM; that for `Cc1cc(C)n2nc(CN3CCC(c4cc(-c5ccccc5)sc4C(=O)O)=C(C4CCC(C)CC4)C3)nc2n1` (stereo not drawn) [Example 088, 3-[1-(5,7-Dimethyl-[1,2,4]triazolo[1,5-a]pyrimidin-2-ylmethyl)-5-(4-methyl-cyclohexyl)-1,2,3,6-tetrahydro-pyridin-4-yl]-5-phenyl-thiophene-2-carboxylic acid] was less than 3 µM.
The compound `Cc1ccnc2cc(-c3ccc(-c4cc(C5=C(C6CCC(C)CC6)CN(C)CC5)c(C(=O)O)s4)cc3)nn12` (stereo not drawn) [Example 162, 3-[1-Methyl-5-(4-methyl-cyclohexyl)-1,2,3,6-tetrahydro-pyridin-4-yl]-5-[4-(7-methyl-pyrazolo[1,5-a]pyrimidin-2-yl)-phenyl]-thiophene-2-carboxylic acid] showed an IC50 of less than 3 µM.
Compound `CC1CCC(C2=C(c3cc(-c4ccc(NC(=O)c5cscn5)cc4)sc3C(=O)OCOC(=O)OC(C)C)CCN(C)C2)CC1` (stereo not drawn) [Example 106, 3-[1-Methyl-5-(4-methyl-cyclohexyl)-1,2,3,6-tetrahydro-pyridin-4-yl]-5-{4-[(thiazole-4-carbonyl)-amino]-phenyl}-thiophene-2-carboxylic acid isopropoxycarbonyloxymethyl ester] registered an IC50 of more than 10 µM.
The value for `CC1CCC(C2=C(c3cc(-c4ccc(NC(=O)c5ccccn5)cc4)sc3C(=O)O)CCN(C)C2)CC1` (stereo not drawn) [Example 042, 3-[1-Methyl-5-(4-methyl-cyclohexyl)-1,2,3,6-tetrahydro-pyridin-4-yl]-5-{4-[(pyridine-2-carbonyl)-amino]-phenyl}-thiophene-2-carboxylic acid] was less than 3 µM; that for `CCN1CCC(c2cc(-c3ccc(NC(=O)c4ccccc4)cc3)sc2C(=O)O)=C(C2CCC(C)CC2)C1` (stereo not drawn) [Example 020, 5-(4-Benzoylamino-phenyl)-3-[1-ethyl-5-(4-methyl-cyclohexyl)-1,2,3,6-tetrahydro-pyridin-4-yl]-thiophene-2-carboxylic acid] was 3 to 10 µM; that for `CC1CCC(C2=C(c3cc(-c4ccccc4)sc3C(=O)O)CCN(Cc3ccccc3)C2)CC1` (stereo not drawn) [Example 043, 3-[1-Benzyl-5-(4-methyl-cyclohexyl)-1,2,3,6-tetrahydro-pyridin-4-yl]-5-phenyl-thiophene-2-carboxylic acid] was 3 to 10 µM.
Turning to `CCN1CCC(c2cc(-c3ccc(NC(=O)c4cc(C)n(C)n4)cc3)sc2C(=O)O)=C(C2CCC(C)CC2)C1` (stereo not drawn) [Example 051, 5-{4-[(1,5-Dimethyl-1H-pyrazole-3-carbonyl)-amino]-phenyl}-3-[1-ethyl-5-(4-methyl-cyclohexyl)-1,2,3,6-tetrahydro-pyridin-4-yl]-thiophene-2-carboxylic acid], the IC50 was less than 3 µM.
The value for `CCCCN1CCC(c2cc(-c3ccccc3)sc2C(=O)O)=C(C2CCC(C)CC2)C1` (stereo not drawn) [Example 007, 3-[1-Butyl-5-(4-methyl-cyclohexyl)-1,2,3,6-tetrahydro-pyridin-4-yl]-5-phenyl-thiophene-2-carboxylic acid] was less than 3 µM.
The value for `CC1CCC(C2=C(c3cc(-c4ccccc4)sc3C(=O)O)CCN(Cc3cncnc3)C2)CC1` (stereo not drawn) [Example 157, 3-[5-(4-Methyl-cyclohexyl)-1-pyrimidin-5-ylmethyl-1,2,3,6-tetrahydro-pyridin-4-yl]-5-phenyl-thiophene-2-carboxylic acid] was more than 10 µM; that for `CC1CCC(C2=C(c3cc(-c4ccccc4)sc3C(=O)O)CCN(S(C)(=O)=O)C2)CC1` (stereo not drawn) [Example 039, 3-[1-Methanesulfonyl-5-(4-methyl-cyclohexyl)-1,2,3,6-tetrahydro-pyridin-4-yl]-5-phenyl-thiophene-2-carboxylic acid] was more than 10 µM.
The value for `CC1CCC(C2=C(c3cc(-c4ccccc4)sc3C(=O)O)CCN(CCCc3ccccc3)C2)CC1` (stereo not drawn) [Example 110, 3-[5-(4-Methyl-cyclohexyl)-1-(4-phenyl-propyl)-1,2,3,6-tetrahydro-pyridin-4-yl]-5-phenyl-thiophene-2-carboxylic acid] was more than 10 µM; that for `CC1CC=C(C2=C(c3cc(-c4ccc(NC(=O)c5nccs5)cc4)sc3C(=O)O)CCN(C)C2)CC1` (stereo not drawn) [Example 069, 3-[1-Methyl-5-(4-methyl-cyclohex-1-enyl)-1,2,3,6-tetrahydro-pyridin-4-yl]-5-{4-[(thiazole-2-carbonyl)-amino]-phenyl}-thiophene-2-carboxylic acid] was less than 3 µM.
The compound `Cc1nn(C)cc1CN1CCC(c2cc(C#CC(C)(C)C)sc2C(=O)O)=C(C2CCC(C)CC2)C1` (stereo not drawn) [Example 142, 5-(3,3-Dimethyl-but-1-ynyl)-3-[1-(1,3-dimethyl-1H-pyrazol-4-ylmethyl)-5-(4-methyl-cyclohexyl)-1,2,3,6-tetrahydro-pyridin-4-yl]-thiophene-2-carboxylic acid] came in with an IC50 of less than 3 µM.
In turn, `Cc1ccc(S(=O)(=O)N2CCC(c3cc(-c4ccccc4)sc3C(=O)O)=C(C3CCC(C)CC3)C2)cc1` (stereo not drawn) [Example 036, 3-[5-(4-Methyl-cyclohexyl)-1-(toluene-4-sulfonyl)-1,2,3,6-tetrahydro-pyridin-4-yl]-5-phenyl-thiophene-2-carboxylic acid] showed an IC50 of more than 10 µM.
Turning to `CC1CCC(C2=C(c3cc(-c4ccccc4)sc3C(=O)O)CCN(CCCO)C2)CC1` (stereo not drawn) [Example 008, 3-[1-(3-Hydroxy-propyl)-5-(4-methyl-cyclohexyl)-1,2,3,6-tetrahydro-pyridin-4-yl]-5-phenyl-thiophene-2-carboxylic acid], the IC50 is less than 3 µM.
Compound `CCCC#Cc1cc(C2=C(C3CCC(C)CC3)CN(CC)CC2)c(C(=O)O)s1` (stereo not drawn) [Example 032, 3-[1-Ethyl-5-(4-methyl-cyclohexyl)-1,2,3,6-tetrahydro-pyridin-4-yl]-5-pent-1-ynyl-thiophene-2-carboxylic acid] had an IC50 of less than 3 µM.
For the compound `CCN1CCC(c2cc(C#CC(C)(C)C)sc2C(=O)O)=C(C2CCC(C)CC2)C1` (stereo not drawn) [Example 014, 5-(3,3-Dimethyl-but-1-ynyl)-3-[1-ethyl-5-(4-methyl-cyclohexyl)-1,2,3,6-tetrahydro-pyridin-4-yl]-thiophene-2-carboxylic acid], the IC50 was less than 3 µM.
The value for `CCN1CCC(c2cc(-c3ccc(NC(=O)c4cccs4)cc3)sc2C(=O)O)=C(C2CCC(C)CC2)C1` (stereo not drawn) [Example 028, 3-[1-Ethyl-5-(4-methyl-cyclohexyl)-1,2,3,6-tetrahydro-pyridin-4-yl]-5-{4-[(thiophene-2-carbonyl)-amino]-phenyl}-thiophene-2-carboxylic acid] was less than 3 µM.

For orientation: IC50 means the concentration that gives 50% inhibition.
